Experimental data published in patent US11021481B2, “Substituted isoindolin-1-ones and 2,3-dihydro-1h-pyrrolo[3,4-c]pyridin-1-ones as HPK1 antagonists” (Nimbus Saturn, Inc., priority 2019, dated 2021).
pIC50: −log10 of the molar value.

target: HPK1 (Homo sapiens (Human), UniProt Q92918); assay: HPK1 biochemical enzyme assay (microfluidic mobility shift assay); settings: 1.5 nM HPK1, ATP 1 mM final, 30 min preincubation, 60 min at RT, Caliper EZ Reader; read-out: HPK1 1000UMATP caliper IC50
Description: HPK1 biochemical enzyme assay: HPK1 enzyme inhibition was measured using a microfluidic mobility shift assay. […] Test compounds were titrated in ten point curves (top final assay concentration 3 μM), and preincubated with enzyme/substrate mix for 30 min prior to initiation of the reaction by addition of ATP (1 mM final concentration) and substrate (1 μM final concentration; Carna Biosciences) diluted in assay buffer supplemented by MgCl2 (final assay concentration of 5 mM). Following 60 min incubation at RT, the reaction was terminated by addition of 60 µl/well termination buffer (Carna Biosciences) and signal determination using aCaliper EZ Reader (Perkin Elmer, UK).
The compound numbers correspond to the compound numbers in Table 1.

Chain of HPK1 (Q92918 whole entry): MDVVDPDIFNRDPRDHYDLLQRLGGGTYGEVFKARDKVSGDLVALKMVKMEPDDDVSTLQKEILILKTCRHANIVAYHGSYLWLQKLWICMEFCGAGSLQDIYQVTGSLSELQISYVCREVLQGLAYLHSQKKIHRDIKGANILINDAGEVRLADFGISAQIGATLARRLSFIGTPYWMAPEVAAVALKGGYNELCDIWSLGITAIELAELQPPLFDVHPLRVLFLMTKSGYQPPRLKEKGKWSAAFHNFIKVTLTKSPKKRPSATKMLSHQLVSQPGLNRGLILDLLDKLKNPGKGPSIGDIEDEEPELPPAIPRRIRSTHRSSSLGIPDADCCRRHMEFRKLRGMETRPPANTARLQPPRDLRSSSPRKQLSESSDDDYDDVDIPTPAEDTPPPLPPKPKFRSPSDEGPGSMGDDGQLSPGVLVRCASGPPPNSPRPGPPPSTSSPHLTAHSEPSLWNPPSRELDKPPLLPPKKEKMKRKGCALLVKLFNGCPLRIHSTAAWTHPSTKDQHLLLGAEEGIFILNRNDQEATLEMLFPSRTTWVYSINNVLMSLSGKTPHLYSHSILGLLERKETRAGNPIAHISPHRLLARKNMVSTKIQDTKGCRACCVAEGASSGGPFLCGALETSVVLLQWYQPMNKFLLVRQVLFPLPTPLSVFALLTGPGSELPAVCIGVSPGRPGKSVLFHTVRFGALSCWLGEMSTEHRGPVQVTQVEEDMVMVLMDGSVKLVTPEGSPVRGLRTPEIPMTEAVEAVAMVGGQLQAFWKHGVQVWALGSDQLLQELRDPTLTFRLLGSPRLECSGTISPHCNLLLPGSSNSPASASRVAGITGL

Row | SMILES | pIC50
1 | CN(C)C1(C2CN(c3ccc(Nc4ccc(-c5cnc6cc(F)ccn56)c5c4C(=O)NC5)nc3)CCO2)CC1 (stereo in doubt) [I-686, (R)-7-((5-(2-(1-(dimethylami-no)cyclopropyl)morphoIino)py-ridin-2-yl)amino)-4-(7-fluoroimidazo [1,2-a]pyridin-3-yl)isoindolin-1-one] | > 7.00
2 | CN(C)C1(C2CN(c3ccc(Nc4ccc(-c5cnc6cc(F)ccn56)c5c4C(=O)NC5)nc3)CCO2)CC1 (stereo in doubt) [I-687, (S)-7-((5-(2-(1-(dimethylami-no)cyclopropyl)morpholino)py-ridin-2-yl)amino)-4-(7-fluoroimidazo [1,2-a]pyridin-3-yl)isoindolin-1-one] | > 7.00
3 | CN(C)Cc1nc(Nc2cnc(-c3ccnc4c3ccn4C)c3c2C(=O)NC3)ccc1[C@@H]1CCOC1 (stereo in doubt) [I-707] | > 7.00
4 | Cc1cccc2c(-c3ccc(Nc4ccc(C5CCOC5)c(CN(C)C)n4)c4c3CNC4=O)cnn12 (stereo in doubt) [I-710, (R)-7-((6-((dimethylamino)-methyl)-5-(tetrahydrofuran-3-yl)pyridin-2-yl)amino)-4-(7-methylpyra-zolo[1,5-a]pyridin-3-yl)isoindolin-1-one] | > 7.00
5 | COCC1CN(c2ccc(Nc3ccc(-c4cnc5cc(F)ccn45)c4c3C(=O)NC4)nc2CN(C)C)CCO1 (stereo in doubt) [I-712, (S)-7-((6-((dimethylamino)-methyl)-5-(2-(methoxymeth-yl)morpho-lino)pyridin-2-yl)amino)-4-(7-fluoroimidazo [1,2-a]pyridin-3-yl)isoindolin-1-one] | > 7.00
6 | O=C1NCc2c(-c3cnc4cc(F)ccn34)ccc(Nc3ccc([C@H]4CCOC4)c(CN4CCOCC4)n3)c21 (stereo in doubt) [I-720, (SMK7-fluoroimidazo [1,2-a]pyridin-3-yl)-7-((6-(morpholinomethyl)-5-(tetrahydrofuran-3-yl)pyridin-2-yl)amino)isoin-dolin-1-one] | > 7.00
7 | O=C1NCc2c(-c3cnc4cc(F)ccn34)ccc(Nc3ccc(C4CCOC4)c(CN4CCOCC4)n3)c21 (stereo in doubt) [I-721, (R)-4-(7-fluoroimidazo [1,2-a]pyridin-3-yl)-7-((6-(morpliolinomethyl)-5-(tetrahydrofuran-3-yl)pyridin-2-yl)amino)isoin-dolin-1-one] | > 7.00
8 | CNCc1nc(Nc2ccc(-c3cnc4cc(F)ccn34)c3c2C(=O)NC3)ccc1C1CCOC1 (stereo in doubt) [I-722, (S)-4-(7-fluoroimidazo [1,2-a]pyridin-3-yl)-7-((6-((methyl-amino)methyl)-5-(tetrahydrofuran-3-yl)pyridin-2-yl)amino)isoin-dolin-1-one] | > 7.00
9 | CNCc1nc(Nc2ccc(-c3cnc4cc(F)ccn34)c3c2C(=O)NC3)ccc1C1CCOC1 (stereo in doubt) [I-723, (R)-4-(7-fluoroimidazo [1,2-a]pyridin-3-yl)-7-((6-((methyl-amino)methyl)-5-(tetrahydrofuran-3-yl)pyridin-2-yl)amino)isoin-dolin-1-one] | > 7.00
10 | COCCN(C)Cc1nc(Nc2ccc(-c3cnc4cc(F)ccn34)c3c2C(=O)NC3)ccc1C1CCOC1 (stereo in doubt) [I-727, (R)-4-(7-fluoroimidazo [1,2-a]pyridin-3-yl)-7-((6-(((2-methoxyethyl) (methyl)-amino)methyl)-5-(tetrahydrofuran-3-yl)pyridin-2-yl)amino)isoin-dolin-1-one] | > 7.00
11 | COCCN(C)Cc1nc(Nc2ccc(-c3cnc4cc(F)ccn34)c3c2C(=O)NC3)ccc1C1CCOC1 (stereo in doubt) [I-728, (S)-4-(7-fluoroimidazo [1,2-a]pyridin-3-yl)-7-(6-(((2-methoxyethyl) (methyl)-amino)methyl)-5-(tetrahydrofuran-3-yl)pyridin-2-yl)amino)isoin-dolin-1-one] | > 7.00
12 | CC(C)N(C)Cc1nc(Nc2ccc(-c3cnc4cc(F)ccn34)c3c2C(=O)NC3)ccc1C1CCOC1 (stereo in doubt) [I-729, (S)-4-(7-fluoroimidazo [1,2-a]pyridin-3-yl)-7-((6-((isopropyl(methyl)amino)methyl)-5-(tetrahydrofuran-3-yl)pyridin-2-yl)amino)isoin-dolin-1-one] | > 7.00
13 | CC(C)N(C)Cc1nc(Nc2ccc(-c3cnc4cc(F)ccn34)c3c2C(=O)NC3)ccc1C1CCOC1 (stereo in doubt) [I-730, (R)-4-(7-fluoroimidazo [1,2-a]pyridin-3-yl)-7-((6-((isopropyl(methyl)amino)methyl)-5-(tetrahydrofuran-3-yl)pyridin-2-yl)amino)isoin-dolin-1-one] | > 7.00
14 | Cc1ccc2c(-c3ccc(Nc4ccc(C5CCOC5)c(CN(C)C)n4)c4c3CNC4=O)cnn2c1 (stereo in doubt) [I-731, (S)-7-((6-((dimethylamino)-methyl)-5-(tetrahydrofuran-3-yl)pyridin-2-yl)amino)-4-(6-methylpyra-zolo[1,5-a]pyridin-3-yl)isoindolin-1-one] | > 7.00
15 | Cc1ccc2c(-c3ccc(Nc4ccc(C5CCOC5)c(CN(C)C)n4)c4c3CNC4=O)cnn2c1 (stereo in doubt) [I-732, (R)-7-((6-((dimethylamino)-methyl)-5-(tetrahydrofuran-3-yl)pyridin-2-yl)amino)-4-(6-methylpyra-zolo[1,5-a]pyridin-3-yl)isoindolin-1-one] | > 7.00
16 | CN(CCO)Cc1nc(Nc2ccc(-c3cnc4cc(F)ccn34)c3c2C(=O)NC3)ccc1C1CCOC1 (stereo in doubt) [I-733, (S)-4-(7-fluoroimidazo [1,2-a]pyridin-3-yl)-7-(6-(((2-hydroxy-ethyl)(methyl)-amino)methyl)-5-(tetrahydrofuran-3-yl)pyridin-2-yl)amino)isoin-dolin-1-one] | > 7.00
17 | CN(CCO)Cc1nc(Nc2ccc(-c3cnc4cc(F)ccn34)c3c2C(=O)NC3)ccc1C1CCOC1 (stereo in doubt) [I-734, (R)-4-(7-fluoroimidazo [1,2-a]pyridin-3-yl)-7-((6-(((2-hydroxyethy (methyl)amino)methyl)-5-(tetrahydrofuran-3-yl)pyridin-2-yl)amino)isoin-dolin-1-one] | > 7.00
18 | O=C1NCc2c(-c3cnc4cc(F)ccn34)ccc(Nc3ccc([C@H]4CCOC4)c(CN4CC[C@H](F)C4)n3)c21 (stereo in doubt) [I-735, 4-(7-fluoroimidazo [1,2-a]pyridin-3-yl)-7-((6-(((S)-3-fluoropyrrol-idin-1-yl)methyl)-5-((S)-tetrahydrofuran-3-yl)pyridin-2-yl)amino)isoin-dolin-1-one] | > 7.00
19 | O=C1NCc2c(-c3cnc4cc(F)ccn34)ccc(Nc3ccc([C@@H]4CCOC4)c(CN4CC[C@H](F)C4)n3)c21 (stereo in doubt) [I-736] | > 7.00
20 | O=C1NCc2c(-c3cnc4cc(F)ccn34)ccc(Nc3ccc([C@H]4CCOC4)c(CN4CC[C@@H](F)C4)n3)c21 (stereo in doubt) [I-741, 4-(7-fluoroimidazo [1,2-a]pyridin-3-yl)-7-((6-(((R)-3-fluoropyrrol-idin-1-yl)methyl)-5-((S)-tetrahydrofur-an-3-yl)pyridin-2-yl)amino)isoin-dolin-1-one] | > 7.00
21 | O=C1NCc2c(-c3cnc4cc(F)ccn34)ccc(Nc3ccc([C@@H]4CCOC4)c(CN4CC[C@@H](F)C4)n3)c21 (stereo in doubt) [I-742] | > 7.00
22 | CN(C)Cc1nc(Nc2ccc(-c3cnc4cc(C(F)F)ccn34)c3c2C(=O)NC3)ccc1C1CCOC1 (stereo in doubt) [I-752, (S)-4-(7-(difluoromethyl)-imidazo[1,2-a]pyridin-3-yl)-7-((6-((dimethylamino)-methyl)-5-(tetrahydrofuran-3-yl)pyridin-2-yl)amino)isoin-dolin-1-one] | > 7.00
23 | CN(C)Cc1nc(Nc2ccc(-c3cnc4cc(C(F)F)ccn34)c3c2C(=O)NC3)ccc1C1CCOC1 (stereo in doubt) [I-753, (R)-4-(7-(difluoromethyl)-imidazo[1,2-a]pyridin-3-yl)-7-((6-((dimethylamino)-methyl)-5-(tetrahydrofuran-3-yl)pyridin-2-yl)amino)isoin-dolin-1-one] | > 7.00
24 | CN(Cc1nc(Nc2ccc(-c3cnc4cc(F)ccn34)c3c2C(=O)NC3)ccc1C1CCOC1)CC(F)(F)F (stereo in doubt) [I-754, (S)-4-(7-fluoroimidazo [1,2-a]pyridin-3-yl)-7-((6-((methyl(2,2.2-trifluoroethyl)amino)methyl)-5-(tetrahydrofuran-3-yl)pyridin-2-yl)amino)isoin-dolin-1-one] | > 7.00
25 | CN(Cc1nc(Nc2ccc(-c3cnc4cc(F)ccn34)c3c2C(=O)NC3)ccc1C1CCOC1)CC(F)(F)F (stereo in doubt) [I-765, (R)-4-(7-fluoroimidazo [1,2-a]pyridin-3-yl)-7-((6-((methyl(2,2,2 trifluoroethyl)amino)methyl)-5-(tetrahydrofuran-3-yl)pyridin-2-yl)amino)isoin-dolin-1-one] | > 7.00
26 | O=C1NCc2c(-c3cnc4cc(F)ccn34)ccc(Nc3ccc(C4CCOC4)c(N4CCNCC4)n3)c21 (stereo in doubt) [I-772, (S)-4-(7-fluoroimidazo [1,2-a]pyridin-3-yl)-7-((6-(piperazin-1-yl)-5-(tetrahydrofuran-3-yl)pyridin-2-yl)amino)isoin-dolin-1-one] | > 7.00
27 | O=C1NCc2c(-c3cnc4cc(F)ccn34)ccc(Nc3ccc(C4CCOC4)c(N4CCNCC4)n3)c21 (stereo in doubt) [I-773, (R)-4-(7-fluoroimidazo [1,2-a]pyridin-3-yl)-7-((6-(piperazin-1-yl)-5-(tetrahydrofuran-3-yl)pyridin-2-yl)amino)isoin-dolin-1-one] | 6.00 to 7.00
